According to patent EP4467141A1, “PYRAZOLO-QUINOLINES AS SELECTIVE INHIBITORS OF GENOTOXIC STRESS-INDUCED IKK/NF- KB PATHWAYS FOR CANCER THERAPY” (Max-Delbrück-Centrum für Molekulare Medizin in der …, priority 2023, dated 2024):

Key:
Experiment in all cases: Kinase panel study
Format in all cases: biochemical
Details in all cases: read-out: Percentage of inhibition; for inhibition at 1 µM: 1000nM; for inhibition at 10 µM: 10000nM
EPHB1 = molecular target: T1, EPHB1 (Homo sapiens, UniProt P54762)
T1 construct: purchased Thermo Fisher Scientific
T1 sequence (P54762 18-984): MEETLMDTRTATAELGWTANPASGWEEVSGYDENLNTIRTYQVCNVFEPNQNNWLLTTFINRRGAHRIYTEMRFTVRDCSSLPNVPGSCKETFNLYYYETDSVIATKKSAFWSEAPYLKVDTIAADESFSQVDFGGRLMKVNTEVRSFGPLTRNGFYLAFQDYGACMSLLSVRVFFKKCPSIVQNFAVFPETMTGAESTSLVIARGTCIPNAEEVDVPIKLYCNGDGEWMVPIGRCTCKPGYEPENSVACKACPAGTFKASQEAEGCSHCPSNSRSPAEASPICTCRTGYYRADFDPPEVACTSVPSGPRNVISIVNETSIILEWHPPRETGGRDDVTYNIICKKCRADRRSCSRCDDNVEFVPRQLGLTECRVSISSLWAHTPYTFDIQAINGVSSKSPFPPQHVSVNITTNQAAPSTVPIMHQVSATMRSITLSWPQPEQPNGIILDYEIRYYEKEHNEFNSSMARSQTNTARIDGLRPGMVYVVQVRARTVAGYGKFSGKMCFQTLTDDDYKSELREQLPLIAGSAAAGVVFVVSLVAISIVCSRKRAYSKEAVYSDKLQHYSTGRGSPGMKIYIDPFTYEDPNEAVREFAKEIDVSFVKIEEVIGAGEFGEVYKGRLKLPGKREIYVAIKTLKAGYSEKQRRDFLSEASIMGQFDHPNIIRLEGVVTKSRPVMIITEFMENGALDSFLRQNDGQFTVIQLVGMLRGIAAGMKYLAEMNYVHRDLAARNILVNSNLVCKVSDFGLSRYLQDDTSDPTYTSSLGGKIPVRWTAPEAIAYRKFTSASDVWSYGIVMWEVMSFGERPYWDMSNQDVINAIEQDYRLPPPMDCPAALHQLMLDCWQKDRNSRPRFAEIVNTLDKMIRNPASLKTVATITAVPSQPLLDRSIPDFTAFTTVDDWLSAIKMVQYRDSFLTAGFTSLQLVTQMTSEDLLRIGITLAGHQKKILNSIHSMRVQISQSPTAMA
Summary of the method: (§1)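 Readout is percentage kinase inhibition. Testing used 1 µM or 10 µM compound in externally run ZLyte/Adapta in vitro assays, and IC50 values were derived within the same panel.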

EPHA2 = molecular target: T2, EPHA2 (Homo sapiens, UniProt P29317)
T2 construct: purchased Thermo Fisher Scientific
T2 sequence (P29317 24-976): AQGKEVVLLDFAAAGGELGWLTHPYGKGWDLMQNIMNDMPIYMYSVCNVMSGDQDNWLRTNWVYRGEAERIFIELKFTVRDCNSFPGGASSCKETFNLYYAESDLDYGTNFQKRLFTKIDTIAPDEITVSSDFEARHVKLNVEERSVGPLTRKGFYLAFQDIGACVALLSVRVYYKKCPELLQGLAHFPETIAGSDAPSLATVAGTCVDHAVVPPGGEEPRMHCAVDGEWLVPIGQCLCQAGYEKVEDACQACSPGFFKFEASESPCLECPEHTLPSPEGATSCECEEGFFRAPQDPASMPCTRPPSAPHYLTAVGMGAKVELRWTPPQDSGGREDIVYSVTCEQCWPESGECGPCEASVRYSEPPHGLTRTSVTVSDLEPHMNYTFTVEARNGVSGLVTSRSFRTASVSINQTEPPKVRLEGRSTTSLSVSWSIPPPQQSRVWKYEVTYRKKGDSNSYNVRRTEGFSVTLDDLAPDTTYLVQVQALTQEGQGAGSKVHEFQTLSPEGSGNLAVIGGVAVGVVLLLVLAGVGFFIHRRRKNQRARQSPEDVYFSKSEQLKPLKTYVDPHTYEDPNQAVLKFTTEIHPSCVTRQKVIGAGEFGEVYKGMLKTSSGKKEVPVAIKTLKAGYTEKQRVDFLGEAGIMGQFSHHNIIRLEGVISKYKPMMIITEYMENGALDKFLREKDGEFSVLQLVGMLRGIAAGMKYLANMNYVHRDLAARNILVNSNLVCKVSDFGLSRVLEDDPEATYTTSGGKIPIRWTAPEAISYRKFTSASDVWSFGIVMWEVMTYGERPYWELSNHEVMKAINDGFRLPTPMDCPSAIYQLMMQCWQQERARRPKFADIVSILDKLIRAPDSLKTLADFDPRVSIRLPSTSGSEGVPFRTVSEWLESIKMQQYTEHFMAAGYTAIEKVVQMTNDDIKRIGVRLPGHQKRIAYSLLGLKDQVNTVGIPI
Summary of the method: as §1

RET Y791F = molecular target: T3, RET Y791F (Homo sapiens, UniProt P07949, Y791F)
T3 construct: purchased Thermo Fisher Scientific
T3 sequence (P07949 29-1114 Y791F): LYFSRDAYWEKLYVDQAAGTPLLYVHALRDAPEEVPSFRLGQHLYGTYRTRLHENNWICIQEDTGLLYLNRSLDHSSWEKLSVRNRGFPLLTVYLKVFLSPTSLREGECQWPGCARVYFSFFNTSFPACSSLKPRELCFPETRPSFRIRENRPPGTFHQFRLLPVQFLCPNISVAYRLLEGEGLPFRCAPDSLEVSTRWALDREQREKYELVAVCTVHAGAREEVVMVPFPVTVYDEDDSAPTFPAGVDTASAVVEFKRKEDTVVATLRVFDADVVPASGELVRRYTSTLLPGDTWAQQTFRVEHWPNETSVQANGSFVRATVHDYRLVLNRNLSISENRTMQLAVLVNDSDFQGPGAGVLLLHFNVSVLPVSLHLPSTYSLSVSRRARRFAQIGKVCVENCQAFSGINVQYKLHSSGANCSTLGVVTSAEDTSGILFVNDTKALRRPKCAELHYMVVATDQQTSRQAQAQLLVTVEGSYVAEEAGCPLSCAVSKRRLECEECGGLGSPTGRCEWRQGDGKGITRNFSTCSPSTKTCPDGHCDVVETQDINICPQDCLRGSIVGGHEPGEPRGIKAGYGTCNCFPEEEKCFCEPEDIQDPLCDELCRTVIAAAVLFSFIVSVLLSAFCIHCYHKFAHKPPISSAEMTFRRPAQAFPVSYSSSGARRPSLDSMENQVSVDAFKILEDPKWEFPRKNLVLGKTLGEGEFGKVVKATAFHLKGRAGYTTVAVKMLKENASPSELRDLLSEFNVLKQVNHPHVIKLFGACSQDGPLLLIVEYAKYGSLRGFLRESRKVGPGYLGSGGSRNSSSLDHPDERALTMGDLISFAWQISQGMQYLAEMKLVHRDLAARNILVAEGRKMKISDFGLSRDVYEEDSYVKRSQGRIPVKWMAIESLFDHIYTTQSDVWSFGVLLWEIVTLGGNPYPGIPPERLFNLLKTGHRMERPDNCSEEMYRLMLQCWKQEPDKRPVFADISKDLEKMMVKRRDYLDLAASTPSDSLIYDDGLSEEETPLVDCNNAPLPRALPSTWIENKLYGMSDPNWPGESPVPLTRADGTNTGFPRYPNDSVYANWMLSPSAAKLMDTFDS
Summary of the method: as §1

JAK2 JH1 JH2 V617F = molecular target: T4, JAK2 JH1 JH2 V617F (Homo sapiens, UniProt O60674, V617F)
T4 construct: JAK2 JH1 JH2 V617F; purchased Thermo Fisher Scientific
T4 sequence (O60674 532-1132 V617F limits assumed): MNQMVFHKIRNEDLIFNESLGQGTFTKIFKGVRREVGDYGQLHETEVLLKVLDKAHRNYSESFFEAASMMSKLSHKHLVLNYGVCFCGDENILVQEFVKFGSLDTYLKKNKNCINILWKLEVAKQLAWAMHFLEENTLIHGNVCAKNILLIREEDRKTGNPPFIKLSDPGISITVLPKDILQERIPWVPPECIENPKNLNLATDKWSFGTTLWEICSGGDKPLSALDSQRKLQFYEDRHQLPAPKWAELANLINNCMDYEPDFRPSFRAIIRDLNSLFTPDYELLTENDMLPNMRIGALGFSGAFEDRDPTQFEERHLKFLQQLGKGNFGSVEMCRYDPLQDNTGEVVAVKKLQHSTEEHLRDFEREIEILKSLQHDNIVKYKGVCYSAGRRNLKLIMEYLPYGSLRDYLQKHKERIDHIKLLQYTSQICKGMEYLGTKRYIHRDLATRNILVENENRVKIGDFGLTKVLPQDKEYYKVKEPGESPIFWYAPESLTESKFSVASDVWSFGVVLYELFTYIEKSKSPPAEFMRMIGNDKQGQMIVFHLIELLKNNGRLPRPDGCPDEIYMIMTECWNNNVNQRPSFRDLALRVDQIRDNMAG
Summary of the method: as §1

PAK4 = molecular target: T5, PAK4 (Homo sapiens, UniProt O96013)
T5 construct: purchased Thermo Fisher Scientific
T5 sequence (O96013 whole entry): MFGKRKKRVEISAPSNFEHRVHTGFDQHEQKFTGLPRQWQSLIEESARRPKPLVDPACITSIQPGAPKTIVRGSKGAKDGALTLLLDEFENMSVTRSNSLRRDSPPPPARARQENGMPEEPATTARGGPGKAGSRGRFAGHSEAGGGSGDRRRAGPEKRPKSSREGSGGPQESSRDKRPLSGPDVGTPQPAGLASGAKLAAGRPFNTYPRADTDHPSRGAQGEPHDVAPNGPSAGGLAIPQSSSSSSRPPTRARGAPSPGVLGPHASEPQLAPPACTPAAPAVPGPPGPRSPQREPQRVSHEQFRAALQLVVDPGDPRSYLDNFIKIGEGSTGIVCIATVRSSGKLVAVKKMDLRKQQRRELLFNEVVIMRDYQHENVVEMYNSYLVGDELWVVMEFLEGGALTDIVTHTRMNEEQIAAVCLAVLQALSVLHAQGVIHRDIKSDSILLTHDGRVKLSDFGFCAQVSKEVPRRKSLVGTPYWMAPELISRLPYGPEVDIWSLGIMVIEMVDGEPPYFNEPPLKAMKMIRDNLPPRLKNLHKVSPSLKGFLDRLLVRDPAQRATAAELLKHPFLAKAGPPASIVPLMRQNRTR
Summary of the method: as §1

AURKC (Aurora C) = molecular target: T6, AURKC (Aurora C) (Homo sapiens, UniProt Q9UQB9)
T6 construct: purchased Thermo Fisher Scientific
T6 sequence (Q9UQB9 1-309): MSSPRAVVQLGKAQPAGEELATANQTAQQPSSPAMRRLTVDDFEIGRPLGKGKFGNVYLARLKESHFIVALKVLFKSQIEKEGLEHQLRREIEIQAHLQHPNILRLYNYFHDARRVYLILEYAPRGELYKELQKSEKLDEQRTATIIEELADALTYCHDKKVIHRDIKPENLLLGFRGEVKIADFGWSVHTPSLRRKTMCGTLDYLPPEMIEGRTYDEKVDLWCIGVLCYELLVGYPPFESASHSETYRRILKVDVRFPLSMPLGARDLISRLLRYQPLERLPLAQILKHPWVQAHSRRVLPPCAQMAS
Summary of the method: as §1

STK22B (TSSK2) = molecular target: T7, STK22B (TSSK2) (Homo sapiens, UniProt Q96PF2)
T7 construct: purchased Thermo Fisher Scientific
T7 sequence (Q96PF2 1-358): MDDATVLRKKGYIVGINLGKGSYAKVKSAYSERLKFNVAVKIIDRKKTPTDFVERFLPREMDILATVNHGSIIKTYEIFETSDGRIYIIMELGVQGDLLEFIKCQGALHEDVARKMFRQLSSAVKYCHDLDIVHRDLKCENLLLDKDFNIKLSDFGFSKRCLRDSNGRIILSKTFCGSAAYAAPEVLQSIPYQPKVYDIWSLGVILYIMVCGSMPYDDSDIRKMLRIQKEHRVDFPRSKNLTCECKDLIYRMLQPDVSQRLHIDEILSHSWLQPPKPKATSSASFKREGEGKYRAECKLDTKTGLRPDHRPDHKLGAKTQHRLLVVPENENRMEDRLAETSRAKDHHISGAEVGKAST
Summary of the method: as §1

SMILES	inhibition at 1 µM (EPHB1) [%]	inhibition at 10 µM (EPHB1) [%]	inhibition at 1 µM (EPHA2) [%]	inhibition at 10 µM (EPHA2) [%]	inhibition at 1 µM (RET Y791F) [%]	inhibition at 10 µM (RET Y791F) [%]	inhibition at 1 µM (JAK2 JH1 JH2 V617F) [%]	inhibition at 10 µM (JAK2 JH1 JH2 V617F) [%]	inhibition at 1 µM (PAK4) [%]	inhibition at 10 µM (PAK4) [%]	inhibition at 1 µM (AURKC (Aurora C)) [%]	inhibition at 10 µM (AURKC (Aurora C)) [%]	inhibition at 1 µM (STK22B (TSSK2)) [%]	inhibition at 10 µM (STK22B (TSSK2)) [%]
COc1ccc2c(c1OC)c(=O)n1c3ccc(O)cc3c3ccnc2c31 [MW01, 5-Hydroxy-10,11-dimethoxy-9H-benzo[c]indolo[3,2,1-ij][1,5]naphthyridin-9-one]	-3	9	6	14	17	32	15	29	13	20	8	10	11	20
COc1ccc2cc3c(N)nn(C(=O)c4cccc(N(C)C)c4)c3nc2c1 [MW05, (3-Amino-7-methoxypyrazolo[3,4-b]quinolin-1-yl)-[3-(dimethylamino)phenyl]methanone]	-3	-6	13	-15	5	7	1	-28	11	15	9	9	11	2
